In patent US10640506B2, “Cyclobutyl substituted pyrrolopyridine and pyrrolopyrimidines derivatives as JAK inhibitors” (Incyte Corporation, priority 2010, dated 2020):
Where two headings read alike, the source gives them in different places.

Assays:
JAK2 (a.a. 828-1132) = target: T1, JAK2 (a.a. 828-1132) (Homo sapiens, UniProt O60674); assay: In vitro JAK kinase assay (HTRF, phosphorylation of biotinylated peptide), JAK2; format: biochemical; settings: 1 mM ATP
T1 construct: JAK2 (a.a. 828-1132); His tag (N)
T1 sequence (O60674 828-1132): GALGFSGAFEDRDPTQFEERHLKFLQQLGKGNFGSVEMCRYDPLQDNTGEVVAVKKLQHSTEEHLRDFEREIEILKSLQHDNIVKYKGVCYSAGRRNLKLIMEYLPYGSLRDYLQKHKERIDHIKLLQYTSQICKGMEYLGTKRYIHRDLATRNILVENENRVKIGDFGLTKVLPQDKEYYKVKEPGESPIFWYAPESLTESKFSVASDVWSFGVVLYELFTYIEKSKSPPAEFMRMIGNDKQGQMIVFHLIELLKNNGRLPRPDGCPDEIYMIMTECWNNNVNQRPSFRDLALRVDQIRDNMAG
Description: Compounds herein were tested for inhibitory activity of JAK targets according to the following in vitro assay described in Park et al., Analytical Biochemistry 1999, 269, 94-104. The catalytic domains of human JAK1 (a.a. 837-1142) and JAK2 (a.a. 828-1132) with an N-terminal His tag were expressed using baculovirus in insect cells and purified. The catalytic activity of JAK1 and JAK2 was assayed by measuring the phosphorylation of a biotinylated peptide. The phosphorylated peptide was detected by homogenous time resolved fluorescence (HTRF). […] Reactions were carried out at room temperature for 1 hour and then stopped with 20 μL 45 mM EDTA, 300 nM SA-APC, 6 nM Eu-Py20 in assay buffer (Perkin Elmer, Boston, Mass.). Binding to the Europium labeled antibody took place for 40 minutes and HTRF signal was measured on a Fusion plate reader (Perkin Elmer, Boston, Mass.). See Tables A-F for data related to compounds of the Examples (at 1 mM). Data is indicated as ranges, wherein “+” is less than 10 nM; “++” is 10 nM to 25 nM; “+++” is greater than 25 nM to 100 nM; and “++++” is greater than 100 nM. Greater than 25 nM to 100 nM specifies a range with a lower endpoint “at greater than 25 nM” and an upper endpoint at 100 nM.

[1] = target: human JAK1 (a.a. 837-1142) (Homo sapiens, UniProt P23458); assay: In vitro JAK kinase assay (HTRF, phosphorylation of biotinylated peptide), JAK1; format: biochemical; settings: 1 mM ATP
human JAK1 (a.a. 837-1142), sequence (P23458 849-1154): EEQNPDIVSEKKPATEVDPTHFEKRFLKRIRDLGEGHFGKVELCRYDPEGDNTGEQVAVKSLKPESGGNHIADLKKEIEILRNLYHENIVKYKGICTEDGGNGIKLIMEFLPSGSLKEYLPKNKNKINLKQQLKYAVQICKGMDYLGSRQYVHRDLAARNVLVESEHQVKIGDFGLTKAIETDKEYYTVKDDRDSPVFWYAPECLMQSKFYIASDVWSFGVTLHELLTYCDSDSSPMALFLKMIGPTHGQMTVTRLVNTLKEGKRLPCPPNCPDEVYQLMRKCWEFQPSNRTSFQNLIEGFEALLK
Description: Compounds herein were tested for inhibitory activity of JAK targets according to the following in vitro assay described in Park et al., Analytical Biochemistry 1999, 269, 94-104. The catalytic domains of human JAK1 (a.a. 837-1142) and JAK2 (a.a. 828-1132) with an N-terminal His tag were expressed using baculovirus in insect cells and purified. The catalytic activity of JAK1 and JAK2 was assayed by measuring the phosphorylation of a biotinylated peptide. The phosphorylated peptide was detected by homogenous time resolved fluorescence (HTRF). […] Reactions were carried out at room temperature for 1 hour and then stopped with 20 μL 45 mM EDTA, 300 nM SA-APC, 6 nM Eu-Py20 in assay buffer (Perkin Elmer, Boston, Mass.). Binding to the Europium labeled antibody took place for 40 minutes and HTRF signal was measured on a Fusion plate reader (Perkin Elmer, Boston, Mass.). […] Data is indicated as ranges, wherein “+” is less than 10 nM; “++” is 10 nM to 25 nM; “+++” is greater than 25 nM to 100 nM; and “++++” is greater than 100 nM. Greater than 25 nM to 100 nM specifies a range with a lower endpoint “at greater than 25 nM” and an upper endpoint at 100 nM.

Compound: N#CC[C@]1(n2cc(-c3ncnc4[nH]ccc34)cn2)C[C@H](N2CCC(Oc3cc(CN4CCC4)nc(C(F)(F)F)n3)CC2)C1 [Example 150, {cis-3-(4-{[6-(azetidin-1-ylmethyl)-2-(trifluoromethyl)pyrimidin-4-yl]oxy}piperidin-1-yl)-1-[4-(7H-pyrrolo[2,3-d]pyrimidin-4-yl)-1H-pyrazol-1-yl]cyclobutyl}acetonitrile]
- IC50 (JAK2 (a.a. 828-1132); Table F): > 100 nM
- IC50 ([1]; Table F): 10 to 25 nM

Compound: N#CC[C@]1(n2cc(-c3ncnc4[nH]ccc34)cn2)C[C@@H](N2CCN(C(=O)c3cc(F)cc(F)c3)CC2)C1 [Example 8a, {cis-3-[4-(3,5-difluorobenzoyl)piperazin-1-yl]-1-[4-(7H-pyrrolo[2,3-d]pyrimidin-4-yl)-1H-pyrazol-1-yl]cyclobutyl}acetonitrile]
- IC50 (JAK2 (a.a. 828-1132); Table A, read-out: JAK2 IC50): 25 to 100 nM
- IC50 ([1]; Table A, read-out: JAK1 IC50): < 10 nM

Compound: N#CC[C@]1(n2cc(-c3ncnc4[nH]ccc34)cn2)C[C@@H](N2CCN(C(=O)c3nc(C(F)(F)F)cs3)CC2)C1 [Example 13a, [cis-1-[4-(7H-pyrrolo[2,3-d]pyrimidin-4-yl)-1H-pyrazol-1-yl]-3-(4-{[4-(trifluoromethyl)-1,3-thiazol-2-yl]carbonyl}piperazin-1-yl)cyclobutyl]acetonitrile]
- IC50 (JAK2 (a.a. 828-1132); Table A, read-out: JAK2 IC50): 25 to 100 nM
- IC50 ([1]; Table A, read-out: JAK1 IC50): < 10 nM

Compound: CC(C)(O)c1cc(C(=O)N2CCN([C@H]3C[C@](CC#N)(n4cc(-c5ncnc6[nH]ccc56)cn4)C3)CC2)nc(C(F)(F)F)n1 [Example 58, {trans-3-(4-{[6-(1-hydroxy-1-methylethyl)-2-(trifluoromethyl)pyrimidin-4-yl]carbonyl}piperazin-1-yl)-1-[4-(7H-pyrrolo[2,3-d]pyrimidin-4-yl)-1H-pyrazol-1-yl]cyclobutyl}acetonitrile]
- IC50 (JAK2 (a.a. 828-1132); Table F): 10 to 25 nM
- IC50 ([1]; Table F): < 10 nM

Compound: N#CC[C@]1(n2cc(-c3ncnc4[nH]ccc34)cn2)C[C@H](N2CCN(C(=O)N3CCCCC3)CC2)C1 [Example 25, {trans-3-[4-(piperidin-1-ylcarbonyl)piperazin-1-yl]-1-[4-(7H-pyrrolo[2,3-d]pyrimidin-4-yl)-1H-pyrazol-1-yl]cyclobutyl}acetonitrile]
- IC50 (JAK2 (a.a. 828-1132); Table B, read-out: JAK2 IC50): > 100 nM
- IC50 ([1]; Table B, read-out: JAK1 IC50): 25 to 100 nM

Compound: CN(C)CCCN(C)C(=O)N1CCN([C@H]2C[C@](CC#N)(n3cc(-c4ncnc5[nH]ccc45)cn3)C2)CC1 [Example 82, 4-{trans-3-(cyanomethyl)-3-[4-(7H-pyrrolo[2,3-d]pyrimidin-4-yl)-1H-pyrazol-1-yl]cyclobutyl}-N-[3-(dimethylamino)propyl]-N-methylpiperazine-1-carboxamide]
- IC50 (JAK2 (a.a. 828-1132); Table F): > 100 nM
- IC50 ([1]; Table F): 10 to 25 nM

Compound: N#CC[C@]1(n2cc(-c3ncnc4[nH]ccc34)cn2)C[C@@H](N2CCN(C(=O)c3cc(F)cc(C#N)c3)CC2)C1 [Example 12a, 3-[(4-{cis-3-(cyanomethyl)-3-[4-(7H-pyrrolo[2,3-d]pyrimidin-4-yl)-1H-pyrazol-1-yl]cyclobutyl}piperazin-1-yl)carbonyl]-5-fluorobenzonitrile]
- IC50 (JAK2 (a.a. 828-1132); Table A, read-out: JAK2 IC50): 25 to 100 nM
- IC50 ([1]; Table A, read-out: JAK1 IC50): < 10 nM

Compound: N#CC[C@]1(n2cc(-c3ncnc4[nH]ccc34)cn2)C[C@H](N2CCN(C(=O)c3ccnc(C(F)(F)F)c3F)CC2)C1 [Example 6b, {trans-3-{4-[3-fluoro-2-(trifluoromethyl)isonicotinoyl]piperazin-1-yl}-1-[4-(7H-pyrrolo[2,3-d]pyrimidin-4-yl)-1H-pyrazol-1-yl]cyclobutyl}acetonitrile]
- IC50 (JAK2 (a.a. 828-1132); Table B, read-out: JAK2 IC50): 25 to 100 nM
- IC50 ([1]; Table B, read-out: JAK1 IC50): < 10 nM

Compound: N#CC[C@]1(n2cc(-c3ncnc4[nH]ccc34)cn2)C[C@H](N2CCN(C(=O)c3cccc(C(F)(F)F)n3)CC2)C1 [Example 20b, {trans-1-[4-(7H-pyrrolo[2,3-d]pyrimidin-4-yl)-1H-pyrazol-1-yl]-3-(4-{[6-(trifluoromethyl)pyridin-2-yl]carbonyl}piperazin-1-yl)cyclobutyl}acetonitrile]
- IC50 (JAK2 (a.a. 828-1132); Table B, read-out: JAK2 IC50): 25 to 100 nM
- IC50 ([1]; Table B, read-out: JAK1 IC50): < 10 nM

Compound: CC(C)NC(=O)N1CCN([C@H]2C[C@](CC#N)(n3cc(-c4ncnc5[nH]ccc45)cn3)C2)CC1 [Example 85, 4-{trans-3-(cyanomethyl)-3-[4-(7H-pyrrolo[2,3-d]pyrimidin-4-yl)-1H-pyrazol-1-yl]cyclobutyl}-N-isopropylpiperazine-1-carboxamide]
- IC50 (JAK2 (a.a. 828-1132); Table F): 25 to 100 nM
- IC50 ([1]; Table F): < 10 nM

Compound: N#CC[C@]1(n2cc(-c3ncnc4[nH]ccc34)cn2)C[C@@H](N2CCN(Cc3c(F)ccc(F)c3Cl)CC2)C1 [Example 16a, {cis-3-[4-(2-chloro-3,6-difluorobenzyl)piperazin-1-yl]-1-[4-(7H-pyrrolo[2,3-d]pyrimidin-4-yl)-1H-pyrazol-1-yl]cyclobutyl}acetonitrile]
- IC50 (JAK2 (a.a. 828-1132); Table A, read-out: JAK2 IC50): 10 to 25 nM
- IC50 ([1]; Table A, read-out: JAK1 IC50): < 10 nM

Compound: N#CC[C@]1(n2cc(-c3ncnc4[nH]ccc34)cn2)C[C@H](N2CCC(Oc3cc(CN4CCC(F)(F)C4)cc(C(F)(F)F)n3)CC2)C1 [Example 160, {trans-3-(4-{[4-[(3,3-difluoropyrrolidin-1-yl)methyl]-6-(trifluoromethyl)pyridin-2-yl]oxy}piperidin-1-yl)-1-[4-(7H-pyrrolo[2,3-d]pyrimidin-4-yl)-1H-pyrazol-1-yl]cyclobutyl}acetonitrile]
- IC50 (JAK2 (a.a. 828-1132); Table F): > 100 nM
- IC50 ([1]; Table F): 10 to 25 nM

Compound: CCCN(C)C(=O)N1CCN([C@H]2C[C@](CC#N)(n3cc(-c4ncnc5[nH]ccc45)cn3)C2)CC1 [Example 80, 4-{trans-3-(cyanomethyl)-3-[4-(7H-pyrrolo[2,3-d]pyrimidin-4-yl)-1H-pyrazol-1-yl]cyclobutyl}-N-methyl-N-propylpiperazine-1-carboxamide]
- IC50 (JAK2 (a.a. 828-1132); Table F): 25 to 100 nM
- IC50 ([1]; Table F): < 10 nM

Compound: CN(C)Cc1cc(OC2CCN([C@H]3C[C@](CC#N)(n4cc(-c5ncnc6[nH]ccc56)cn4)C3)CC2)nc(C(F)(F)F)c1 [Example 130, {trans-3-(4-{[4-[(dimethylamino)methyl]-6-(trifluoromethyl)pyridin-2-yl]oxy}piperidin-1-yl)-1-[4-(7H-pyrrolo[2,3-d]pyrimidin-4-yl)-1H-pyrazol-1-yl]cyclobutyl}acetonitrile]
- IC50 (JAK2 (a.a. 828-1132); Table F): > 100 nM
- IC50 ([1]; Table F): < 10 nM

Compound: CN(C)Cc1cc(C#N)cc(CN2CCN([C@H]3C[C@@](CC#N)(n4cc(-c5ncnc6[nH]ccc56)cn4)C3)CC2)c1 [Example 44, 3-[(4-{cis-3-(cyanomethyl)-3-[4-(7H-pyrrolo[2,3-d]pyrimidin-4-yl)-1H-pyrazol-1-yl]cyclobutyl}piperazin-1-yl)methyl]-5-[(dimethylamino)methyl]benzonitrile]
- IC50 (JAK2 (a.a. 828-1132); Table F): > 100 nM
- IC50 ([1]; Table F): 10 to 25 nM

Compound: CC(C)(O)c1cc(C(=O)N2CCN([C@H]3C[C@@](CC#N)(n4cc(-c5ncnc6[nH]ccc56)cn4)C3)CC2)nc(C(F)(F)F)n1 [Example 59, {cis-3-(4-{[6-(1-hydroxy-1-methylethyl)-2-(trifluoromethyl)pyrimidin-4-yl]carbonyl}piperazin-1-yl)-1-[4-(7H-pyrrolo[2,3-d]pyrimidin-4-yl)-1H-pyrazol-1-yl]cyclobutyl}acetonitrile]
- IC50 (JAK2 (a.a. 828-1132); Table F): 25 to 100 nM
- IC50 ([1]; Table F): < 10 nM

Compound: N#CC[C@]1(n2cc(-c3ncnc4[nH]ccc34)cn2)C[C@H](N2CCN(C(=O)N[C@H]3CC[C@H](O)CC3)CC2)C1 [Example 86, 4-{trans-3-(cyanomethyl)-3-[4-(7H-pyrrolo[2,3-d]pyrimidin-4-yl)-1H-pyrazol-1-yl]cyclobutyl}-N-(trans-4-hydroxycyclohexyl)piperazine-1-carboxamide]
- IC50 (JAK2 (a.a. 828-1132); Table F): 25 to 100 nM
- IC50 ([1]; Table F): 10 to 25 nM

Compound: N#CC[C@]1(n2cc(-c3ncnc4[nH]ccc34)cn2)C[C@@H](N2CCN(C(=O)c3ccc(F)c(OC(F)(F)F)c3)CC2)C1 [Example 26, {cis-3-{4-[4-fluoro-3-(trifluoromethoxy)benzoyl]piperazin-1-yl}-1-[4-(7H-pyrrolo[2,3-d]pyrimidin-4-yl)-1H-pyrazol-1-yl]cyclobutyl}acetonitrile]
- IC50 (JAK2 (a.a. 828-1132); Table A, read-out: JAK2 IC50): 25 to 100 nM
- IC50 ([1]; Table A, read-out: JAK1 IC50): 10 to 25 nM

Compound: CCS(=O)(=O)N1CCN([C@H]2C[C@](CC#N)(n3cc(-c4ncnc5[nH]ccc45)cn3)C2)CC1 [Example 35, {trans-3-[4-(ethylsulfonyl)piperazin-1-yl]-1-[4-(7H-pyrrolo[2,3-d]pyrimidin-4-yl)-1H-pyrazol-1-yl]cyclobutyl}acetonitrile]
- IC50 (JAK2 (a.a. 828-1132); Table B, read-out: JAK2 IC50): < 10 nM
